The target of test [1] is T1, TBK1 (Homo sapiens, UniProt Q9UHD2).
T1 construct: TBK1 and IKKε were expressed and purified as full length recombinant proteins; made in house
T1 sequence (Q9UHD2 1-729): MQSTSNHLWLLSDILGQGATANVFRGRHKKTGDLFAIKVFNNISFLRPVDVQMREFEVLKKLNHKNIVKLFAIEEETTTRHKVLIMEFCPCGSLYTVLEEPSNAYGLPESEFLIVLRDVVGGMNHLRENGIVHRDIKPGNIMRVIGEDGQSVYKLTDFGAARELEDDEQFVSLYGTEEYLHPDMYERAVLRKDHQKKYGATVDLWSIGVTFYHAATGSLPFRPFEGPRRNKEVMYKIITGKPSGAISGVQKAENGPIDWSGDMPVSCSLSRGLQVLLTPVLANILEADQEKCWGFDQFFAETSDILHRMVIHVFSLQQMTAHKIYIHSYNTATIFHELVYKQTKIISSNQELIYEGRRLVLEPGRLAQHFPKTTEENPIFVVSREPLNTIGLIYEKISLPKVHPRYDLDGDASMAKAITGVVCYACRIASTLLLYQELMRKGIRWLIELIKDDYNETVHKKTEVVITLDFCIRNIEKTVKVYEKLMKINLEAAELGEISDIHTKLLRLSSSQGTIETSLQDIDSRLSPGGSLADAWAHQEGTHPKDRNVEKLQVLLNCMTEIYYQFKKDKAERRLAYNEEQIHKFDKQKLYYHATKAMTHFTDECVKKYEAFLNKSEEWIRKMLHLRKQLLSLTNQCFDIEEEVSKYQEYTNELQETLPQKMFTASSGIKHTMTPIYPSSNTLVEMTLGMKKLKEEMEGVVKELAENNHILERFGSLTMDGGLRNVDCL
In words: TR-FRET enzymatic activity assay, TBK1. Also: full length recombinant TBK1 at 2.5 nM. The class given is biochemical. An outline of the steps: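 TR-FRET detected phosphorylation of a biotinylated serine/threonine peptide using 125 nM streptavidin XL665 plus europium-labelled anti-phospho antibody. Reactions with full-length recombinant kinase ran 240 min at 25 °C before EDTA quench. Values are geometric-mean IC50s (n ≥ 4) from four-parameter dose-response fits against staurosporine and DMSO controls.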

The target of test [2] is T2, IKKε (Homo sapiens, UniProt Q14164).
T2 construct: TBK1 and IKKε were expressed and purified as full length recombinant proteins; made in house
T2 sequence (Q14164 1-716): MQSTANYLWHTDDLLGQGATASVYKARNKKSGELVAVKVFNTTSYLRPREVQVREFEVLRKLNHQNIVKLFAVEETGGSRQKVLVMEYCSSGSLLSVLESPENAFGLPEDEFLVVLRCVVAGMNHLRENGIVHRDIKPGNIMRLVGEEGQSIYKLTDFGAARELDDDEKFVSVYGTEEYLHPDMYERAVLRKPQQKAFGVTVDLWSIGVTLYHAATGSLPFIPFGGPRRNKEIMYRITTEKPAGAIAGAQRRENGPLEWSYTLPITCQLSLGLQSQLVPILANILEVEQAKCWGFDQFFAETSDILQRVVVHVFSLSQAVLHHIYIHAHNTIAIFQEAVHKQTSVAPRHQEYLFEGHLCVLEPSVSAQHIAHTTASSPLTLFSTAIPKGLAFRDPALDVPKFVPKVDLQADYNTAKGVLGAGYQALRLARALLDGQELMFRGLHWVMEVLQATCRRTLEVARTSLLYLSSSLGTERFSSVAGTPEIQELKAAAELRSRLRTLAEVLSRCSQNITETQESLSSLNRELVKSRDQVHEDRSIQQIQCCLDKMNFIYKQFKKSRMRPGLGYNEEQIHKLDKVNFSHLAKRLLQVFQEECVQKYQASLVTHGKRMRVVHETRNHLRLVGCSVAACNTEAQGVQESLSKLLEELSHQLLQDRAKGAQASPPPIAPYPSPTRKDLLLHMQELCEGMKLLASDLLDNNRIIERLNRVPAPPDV
Briefly: TR-FRET enzymatic activity assay, IKKε. Also: full length recombinant IKKε at 0.3 nM. The note with it: read-out: IKKϵ IC50. The class given is biochemical. The gist of the method:
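IC50 values are geometric means of at least four determinations, fitted to a four-parameter curve after normalising to 1 μM staurosporine and DMSO. Signal: Eu-cryptate anti-phospho antibody plus 125 nM streptavidin-XL665 on a biotinylated peptide. Full-length recombinant enzyme reacted 240 min, 25 °C, then EDTA-quenched.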

SMILES strings stand for the structures.

As for `N#Cc1cc(-c2ccnc(NC(=O)C3CC3(F)F)c2)ccc1O[C@H]1CCN(C(=O)CO)C[C@H]1F` (stereo partly drawn) [Example 58, N-(4-(3-cyano-4-(((3R,4S)-3-fluoro-1-(2-hydroxyacetyl)piperidin-4-yl)oxy)phenyl)pyridin-2-yl)-2,2-difluorocyclopropane-1-carboxamide], the IC50 was 48.6 nM in test [1] and 30.1 nM in test [2].
In the same order, the values of `N#Cc1cc(-c2ccnc(NC(=O)[C@@H]3C[C@H]3C(N)=O)c2)ccc1O[C@H]1CCN(C(=O)CO)C[C@H]1F` [Example 85, (1,2-trans)-N-(4-(3-cyano-4-(((3R,4S)-3-fluoro-1-(2-hydroxyacetyl)piperidin-4-yl)oxy)phenyl)pyridin-2-yl)cyclopropane-1,2-dicarboxamide] are 108 nM and 115 nM.
The matching figures for `N#Cc1cc(-c2ccnc(NC(=O)[C@H]3C[C@H]3F)c2)ccc1N1CCCC1` [Example 64, (1R,2R)—N-(4-(3-cyano-4-(pyrrolidin-1-yl)phenyl)pyridin-2-yl)-2-fluorocyclopropane-1-carboxamide]: 85.3 nM and 578 nM.
Consider `C[C@H]1CCCN1c1ccc(-c2ccnc(NC(=O)C3CC3)c2)cc1C#N` [Example 92, (S)—N-(4-(3-cyano-4-(2-methylpyrrolidin-1-yl)phenyl)pyridin-2-yl)cyclopropanecarboxamide], for which the figures for the IC50 in test [1] and in test [2] were 20.3 nM and 128 nM, respectively.
For the compound `N#CCC(=O)N1CC[C@H](Oc2ccc(-c3ccnc(NC(=O)C4CC4)c3)cc2C#N)C(F)(F)C1` [Example 13, (S)—N-(4-(3-cyano-4-((1-(2-cyanoacetyl)-3,3-difluoropiperidin-4-yl)oxy)phenyl)pyridin-2-yl)cyclopropanecarboxamide], the IC50 in test [1] was 12.4 nM; in test [2], 44 nM.
In the case of `COCC(=O)N1CC[C@H](Oc2ccc(-c3ccnc(NC(=O)[C@H]4C[C@@H]4F)c3)cc2C#N)[C@H](F)C1` [Example 68, (1,2-trans)-N-(4-(3-Cyano-4-(((3R,4S)-3-fluoro-1-(2-methoxyacetyl)piperidin-4-yl)oxy)phenyl)pyridin-2-yl)-2-fluorocyclopropane-1-carboxamide], the IC50 in test [1] was found to be 34.2 nM; in test [2], 87.8 nM.
The matching figures for `N#Cc1cc(-c2cc(NC(=O)C3CC3)ncn2)ccc1O[C@H]1CCN(C(=O)CCO)CC1(F)F` [Example 154, (S)—N-(6-(3-cyano-4-((3,3-difluoro-1-(3-hydroxypropanoyl)piperidin-4-yl)oxy)phenyl)pyrimidin-4-yl)cyclopropanecarboxamide]: 41.5 nM and 387 nM.
Turning to `Cc1nnc([C@@H]2C[C@H]2C(=O)Nc2cc(-c3ccc(O[C@H]4CCN(C(=O)CO)C[C@H]4F)c(C#N)c3)ccn2)o1` [Example 156, Trans-N-(4-(3-cyano-4-(((3R,4S)-3-fluoro-1-(2-hydroxyacetyl)piperidin-4-yl)oxy)phenyl)pyridin-2-yl)-2-(5-methyl-1,3,4-oxadiazol-2-yl)cyclopropane-1-carboxamide], the IC50 in test [1] was 36.6 nM; in test [2], 41 nM.
As for `CCC[C@H]1C[C@@H]1C(=O)Nc1cc(-c2ccc(OC3CCOCC3)c(C#N)c2)ccn1` (relative stereo) [Example 91, (1,2-trans)-N-(4-(3-cyano-4-((tetrahydro-2H-pyran-4-yl)oxy)phenyl)pyridin-2-yl)-2-propylcyclopropane-1-carboxamide], the IC50 in test [1] came to 44.1 nM; in test [2], 266 nM.
`Cn1cc([C@@H]2C[C@H]2C(=O)Nc2cc(-c3ccc(O[C@H]4CCN(C(=O)[C@@H](O)CO)CC4(F)F)c(C#N)c3)ccn2)cn1` [Example 131, (1,2-Trans)-N-(4-(3-cyano-4-(((S)-1-((S)-2,3-dihydroxypropanoyl)-3,3-difluoropiperidin-4-yl)oxy)phenyl)pyridin-2-yl)-2-(1-methyl-1H-pyrazol-4-yl)cyclopropane-1-carboxamide]: the values for the IC50 in test [1] and in test [2] were 6.6 nM and 11.6 nM, respectively.
